Experimental data from ChEMBL document CHEMBL5321219, “Selective degradation of cellular BRD3 and BRD4-L promoted by PROTAC molecules in six cancer cell lines” (Eur J Med Chem, 2023).
Active and inactive are the calls of the source. No cut-off for these calls is given here.

Assays:
[1] = molecular target: T1, Protein cereblon/Bromodomain-containing protein 4 (Homo sapiens) (UniProt O60885+Q96SW2); test: PROTAC activity at CRBN/BRD4-L in human HGC-27 cells assessed as induction of protein degradation at 30 nM measured after 8 to 24 hrs by Western blot analysis; format: cell-based; conditions: time 8-24 hrs
T1 sequence (Q96SW2 whole entry, looked up, other chains not shown): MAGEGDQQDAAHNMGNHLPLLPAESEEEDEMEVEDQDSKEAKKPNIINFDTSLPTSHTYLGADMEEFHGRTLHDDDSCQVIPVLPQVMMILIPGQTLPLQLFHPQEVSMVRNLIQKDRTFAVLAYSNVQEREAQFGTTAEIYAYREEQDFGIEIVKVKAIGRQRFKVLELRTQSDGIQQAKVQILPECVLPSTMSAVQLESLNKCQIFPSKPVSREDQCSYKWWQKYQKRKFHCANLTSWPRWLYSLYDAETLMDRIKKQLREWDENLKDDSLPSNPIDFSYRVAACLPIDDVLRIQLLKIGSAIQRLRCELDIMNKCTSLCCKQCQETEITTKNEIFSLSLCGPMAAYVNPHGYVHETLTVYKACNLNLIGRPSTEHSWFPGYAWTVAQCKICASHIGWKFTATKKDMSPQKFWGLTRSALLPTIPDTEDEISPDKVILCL

[2] = molecular target: Protein cereblon/Bromodomain-containing protein 3 (Homo sapiens) (UniProt Q15059+Q96SW2); test: PROTAC activity at CRBN/BRD3 in human MM1.S cells assessed as induction of protein degradation at 2 nM measured after 24 hrs by Western blot analysis; format: cell-based
Sequence of Protein cereblon/Bromodomain-containing protein 3 (Homo sapiens) (Q15059 2-726 limits assumed): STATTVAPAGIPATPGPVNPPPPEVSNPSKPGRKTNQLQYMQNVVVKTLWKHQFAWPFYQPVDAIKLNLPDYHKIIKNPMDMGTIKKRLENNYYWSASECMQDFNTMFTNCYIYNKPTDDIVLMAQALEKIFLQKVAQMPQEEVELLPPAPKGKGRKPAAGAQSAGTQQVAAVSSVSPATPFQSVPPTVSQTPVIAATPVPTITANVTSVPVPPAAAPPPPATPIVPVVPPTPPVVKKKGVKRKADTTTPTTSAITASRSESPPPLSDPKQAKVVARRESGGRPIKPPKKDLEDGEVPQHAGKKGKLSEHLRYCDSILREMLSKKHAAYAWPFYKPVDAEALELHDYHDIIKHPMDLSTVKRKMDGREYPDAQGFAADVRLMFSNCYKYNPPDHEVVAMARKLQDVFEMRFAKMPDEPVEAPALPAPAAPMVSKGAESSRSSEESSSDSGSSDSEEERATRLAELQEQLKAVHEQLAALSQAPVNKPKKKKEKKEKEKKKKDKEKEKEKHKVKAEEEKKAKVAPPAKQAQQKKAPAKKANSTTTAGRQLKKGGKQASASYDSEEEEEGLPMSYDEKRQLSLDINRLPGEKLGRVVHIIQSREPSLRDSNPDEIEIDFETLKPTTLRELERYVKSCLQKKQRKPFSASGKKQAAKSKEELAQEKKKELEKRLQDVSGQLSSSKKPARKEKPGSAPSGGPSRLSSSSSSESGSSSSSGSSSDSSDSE
Sequence of Protein cereblon/Bromodomain-containing protein 3 (Homo sapiens) (Q96SW2 whole entry partner): as the sequence (Q96SW2 whole entry, looked up, other chains not shown) above

[3] = molecular target: T1, Protein cereblon/Bromodomain-containing protein 4 (Homo sapiens); test: PROTAC activity at CRBN/BRD4-L in human MM1.S cells assessed as induction of protein degradation at 30 nM measured after 3 to 6 hrs by Western blot analysis; format: cell-based; conditions: time 3-6 hrs
[4] = molecular target: T1, Protein cereblon/Bromodomain-containing protein 4 (Homo sapiens); test: PROTAC activity at CRBN/BRD4-L in human MV4-11 cells assessed as induction of protein degradation at 0.1 to 30 nM measured after 24 hrs by Western blot analysis; format: cell-based; conditions: dose 0.1-30 nM
MM1.S = test: Induction of cell cycle arrest in human MM1.S cells assessed as accumulation of cells at G1 phase at 3 nM incubated for 24 hrs by flow cytometry analysis (reference value: 56.32%); format: functional
HepG2 = test: Antiproliferative activity against human HepG2 cells assessed as cell growth inhibition measured after 4 days by CCK-8 assay; format: functional, cell-based; conditions: HepG2, 96 h
[5] = molecular target: T1, Protein cereblon/Bromodomain-containing protein 4 (Homo sapiens); test: PROTAC activity at CRBN/BRD4-L in human MM1.S cells assessed as induction of protein degradation measured after 24 hrs by Western blot analysis; format: cell-based
MV4-11 = test: Antiproliferative activity against human MV4-11 cells assessed as cell growth inhibition measured after 3 days by CellTitre-Glo assay; format: functional, cell-based; conditions: MV4-11, 72 h
[6] = molecular target: T1, Protein cereblon/Bromodomain-containing protein 4 (Homo sapiens); test: PROTAC activity at CRBN/BRD4-L in human MM1.S cells assessed as induction of protein degradation at 30 nM pretreated with lenalidomide for 2 hrs followed by compound addition and measured after 4 hrs by Western blot analysis; format: cell-based
[7] = molecular target: T2, Protein cereblon/Bromodomain-containing protein 2 (Homo sapiens) (UniProt P25440+Q96SW2); test: PROTAC activity at CRBN/BRD2 in human MM1.S cells assessed as induction of protein degradation at 30 nM measured around 24 hrs by Western blot analysis; format: cell-based
T2 sequence (P25440 whole entry, looked up): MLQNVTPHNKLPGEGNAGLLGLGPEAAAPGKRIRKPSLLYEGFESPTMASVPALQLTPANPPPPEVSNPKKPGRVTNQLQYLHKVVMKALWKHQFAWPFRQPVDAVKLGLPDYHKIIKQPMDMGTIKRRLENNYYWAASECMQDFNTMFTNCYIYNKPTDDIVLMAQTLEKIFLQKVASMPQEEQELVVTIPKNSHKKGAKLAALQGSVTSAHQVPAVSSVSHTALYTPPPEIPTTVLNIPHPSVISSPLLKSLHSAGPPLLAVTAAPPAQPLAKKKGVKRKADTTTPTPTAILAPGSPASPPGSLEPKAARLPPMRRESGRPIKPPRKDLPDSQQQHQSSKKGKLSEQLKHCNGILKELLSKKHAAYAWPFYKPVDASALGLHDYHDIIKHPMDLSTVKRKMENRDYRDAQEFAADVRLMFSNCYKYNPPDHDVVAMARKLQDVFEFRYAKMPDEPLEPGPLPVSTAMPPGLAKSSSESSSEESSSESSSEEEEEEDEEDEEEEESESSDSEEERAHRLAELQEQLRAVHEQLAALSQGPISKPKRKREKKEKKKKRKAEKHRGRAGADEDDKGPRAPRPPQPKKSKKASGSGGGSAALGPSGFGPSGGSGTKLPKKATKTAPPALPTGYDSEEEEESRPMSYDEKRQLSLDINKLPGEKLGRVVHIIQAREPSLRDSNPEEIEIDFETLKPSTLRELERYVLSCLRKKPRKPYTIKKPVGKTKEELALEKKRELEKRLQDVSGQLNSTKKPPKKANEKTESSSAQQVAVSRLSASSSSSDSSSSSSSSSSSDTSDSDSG
T2 sequence (Q96SW2 whole entry, looked up): as the sequence (Q96SW2 whole entry, looked up, other chains not shown) above

[8] = molecular target: T1, Protein cereblon/Bromodomain-containing protein 4 (Homo sapiens); test: PROTAC activity at CRBN/BRD4-L in human MM1.S cells assessed as induction of protein degradation at 30 nM by Western blot analysis; format: cell-based; conditions: TDE = time-dependent effect
[9] = molecular target: T1, Protein cereblon/Bromodomain-containing protein 4 (Homo sapiens); test: PROTAC activity at CRBN/BRD4-L in human MCF7 cells assessed as induction of protein degradation measured after 24 hrs by Western blot analysis; format: cell-based; conditions: dose 1-300 nM
[10] = molecular target: T2, Protein cereblon/Bromodomain-containing protein 2 (Homo sapiens); test: PROTAC activity at CRBN/BRD2 in human HeLa cells assessed as induction of protein degradation at 1 to 300 nM measured after 24 hrs by Western blot analysis; format: cell-based; conditions: dose 1-300 nM

Cc1nnc2n1-c1ccc(-c3ccc(CNCCCCc4cccc5c4CN(C4CCC(=O)NC4=O)C5=O)cc3)cc1C(Nc1ccc(Cl)cc1)CC2 (stereo not drawn)
Activity [1]: Active
Activity [2]: Active
Activity [3]: Active
Activity [4]: Active
Activity (MM1.S): 62.34%
IC50 (HepG2): 17.2 µM
Activity [5]: Dose-Dependent Effect
IC50 (MV4-11): 0.00631 µM
Activity [6]: inactive
Activity [7]: Active
Activity [8]: Tde
Activity [9]: Dose-Dependent Effect
Activity [10]: inactive
